pIC50: −log10 of the molar value.

Drawing on patent publication US11773071B2, “Benzothiazepine compounds and their use as bile acid modulators” (Albireo AB, priority 2019, dated 2023), this text covers IC50 and Papp A→B for one compound.

One data set addresses T1, Human IBAT (Homo sapiens, UniProt Q12908).
T1 construct: expressed in transfected cells; Puromycin-selected
T1 sequence (Q12908 1-348): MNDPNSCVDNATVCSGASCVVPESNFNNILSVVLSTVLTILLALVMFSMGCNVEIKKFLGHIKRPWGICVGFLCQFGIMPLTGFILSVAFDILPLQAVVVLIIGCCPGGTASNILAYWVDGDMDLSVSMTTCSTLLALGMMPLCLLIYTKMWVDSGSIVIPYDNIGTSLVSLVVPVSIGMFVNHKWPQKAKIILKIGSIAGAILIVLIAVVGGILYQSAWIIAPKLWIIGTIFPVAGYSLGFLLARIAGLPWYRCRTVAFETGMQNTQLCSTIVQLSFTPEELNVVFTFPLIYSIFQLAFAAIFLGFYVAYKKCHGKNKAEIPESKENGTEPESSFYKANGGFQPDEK
Description: IBAT (h/m) assay, human IBAT-overexpressing cells, 3H-taurocholic acid uptake. Type of data set: cell-based. The note with it: 0.25 μM 3H-taurocholic acid and 5 μM cold taurocholic acid, 20 minutes, read-out: hIBAT IC50. The procedure, abridged:
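Human or mouse IBAT-overexpressing cells, seeded 48 h before the assay, were incubated 20 min at 37 °C with 0.25 μM 3H-taurocholic acid plus 5 μM cold taurocholic acid and inhibitor (10-point 3-fold series from 10 μM top, 0.2% DMSO final), in duplicate. After ice stop and washes with 1 mM cold taurocholate, uptake was read by scintillation counting.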

Data set [1] is described as follows: Bidirectional permeability assay (Caco-2 cells). It is filed as in vitro ADME. The settings on record: human, Caco-2, absorptive direction (A2B), 10 μM in FaSSIF buffer. As for the experimental part: Bidirectional Permeability Assay (Caco-2 Cells)
Caco-2 cells (Evotec) were seeded at a density of 70,000 cells/well in Millicell® 24-well cell culture insert plates and maintained in an incubator (37° C., 5% CO2, 95% RH) for 21 days with media change on alternate days.
Stock solutions (10 mM) of the test compounds, atenolol (low permeability marker), propranolol (high permeability marker) and digoxin (substrate for P-gp transport pathway) were prepared in dimethylsulfoxide (DMSO). An intermediate stock solution (1 mM) was prepared by diluting 10 μL of 10 mM master stock solution with 90 μL of neat DMSO. A working stock solution (10 μM) was prepared by diluting 50 μL of 1 mM with 4950 μL of FaSSIF buffer. Post addition of compounds to the FaSSIF, samples were subjected to sonication for 2 hours, and centrifuged at 4000 RPM for 30 minutes at 37° C. The 4 mL of resultant supernatant was directly used in the assay. The final DMSO concentration in the transport experiments was 1%.
On the day of assay, Caco-2 monolayers were washed twice with transport buffer (HBSS, pH 7.4) and pre-incubated for 30 min (37° C., 5% CO2, 95% RH) in an incubator. The electrical resistance of the monolayers was measured with a Millicell®—ERS system. Monolayers with trans-epithelial electrical resistance (TEER) values greater than 350 ohm·cm^2 were selected for the assay.
The assay was conducted in absorptive direction (A2B) and secretory (B2A) directions. Transport experiments were initiated by addition of transport assay buffer (FaSSIF buffer prepared in HBSS) consisting of compounds to the donor compartment (apical chamber A-B; basolateral chamber B-A) in duplicate (n=2) wells. Drug free HBSS buffer (pH 7.4) containing 1% bovine serum albumin (BSA) was introduced to the receiver (A-B-basolateral; B-A-Apical) compartments. The volumes of apical and basolateral compartments were 0.4 and 0.8 mL, respectively. After adding dosing solution, plates were incubated in an incubator for 120 minutes at 37° C. After 120 minutes, donor and receiver samples were collected and matrix matched (1:1, 30 μL study sample+30 μL blank buffer) with the opposite buffer. Dosing samples matrix matched (1:1, 30 μL study sample+30 μL blank buffer) with the opposite buffer. Samples were processed by adding acetonitrile containing internal standard (60 μL study sample+200 μL acetonitrile containing internal standard—Tolbutamide, 500 ng/mL). Samples were vortexed and centrifuged at 4000 rpm for 10 minutes. The obtained supernatant (100 μL) was diluted with 100 μL of water and transferred to fresh 96 well plates. The concentration of compounds in the samples was analyzed by liquid chromatography tandem mass spectrometry (LC-MS/MS) method using discovery grade bio-analytical method, as applicable.
The mean apparent permeability (Papp,×10^−6 cm/sec) of the test compounds, atenolol, propranolol and digoxin were calculated as follows:
[formula] where dq/dt=rate of transport (rate of transport of compound in the receiver compartment), C0=initial concentration in the donor compartment, A=surface area of the effective filter membrane.
A general note: Caco-2 monolayers are a common model of the intestinal barrier.

One may read the pIC50 as the negative decadic logarithm of the IC50, by convention in mol/L. One may read the Papp A→B as how fast a substance crosses the layer from the apical side. High values mean fast passage, low ones slow passage. For the compound `CCCCC1(CC)CN(c2ccccc2)c2cc(N(C)C)c(OCCC(=O)O)cc2S(=O)(=O)C1` (single isomer, unassigned) [Example 17, 3-((3-butyl-7-(dimethylamino)-3-ethyl-1,1-dioxido-5-phenyl-2,3,4,5-tetrahydro-1,5-benzothiazepin-8-yl)oxy)propanoic acid], at Human IBAT, the pIC50 was 8.70. This compound also gave a Papp A→B at 120 min, 10 μM in data set [1] of 16.5 ×10⁻⁶ cm/s.
